PMC8151276, “An Integrated Approach toward NanoBRET Tracers for Analysis of GPCR Ligand Engagement” (Molecules, 2021)

Target: T1, DRD2 (Homo sapiens, UniProt P14416)
T1 construct: purchased Promega (in-house HiBiT-GPCR construct library, NanoBRET)
Experiment: NanoBRET screen HiBiT-DRD2 in HEK293
Assay type: binding
Description: Each tracer candidate was screened across the entire library of HiBiT-GPCR constructs using NanoBRET as the detection modality. As depicted in Figure 4A, the specificity of interactions was evaluated through decrease in BRET due to competitive displacement of a bound tracer by excess parental compound. Each tracer was analyzed for binding to each HiBiT-GPCR fusion in the absence and in the presence of competing parental compound. Briefly, HEK293 cells were transfected with HiBiT-GPCR constructs diluted into promoterless DNA to reduce expression and maximize translocation to the cell surface. Each tracer candidate was then screened at concentrations of 1 μM and 0.1 μM across cells expressing these fusions. Cells were treated for 1.5 h with tracer either alone or in the presence of 20 μM competing parental compound (i.e., control). BRET was measured upon addition of purified LgBiT and subsequent complementation with HiBiT genetically fused to a GPCR. The specificity of interactions was assessed through a decrease in BRET signal due to competitive displacement of the bound tracer. To further gauge the robustness of these interactions, the fold response over the control (i.e., BRETtracer/BRETcontrol) was calculated. We chose a 1.5-fold response, which translates to ≥7-fold signal over noise as the minimal threshold required to score an interaction as positive.
HiBiT-GPCR DNA constructs were diluted in 10 mM Tris pH 8 to a final concentration of 0.01 μg/μL, arrayed in 96-well plates and stored at −20 °C. For transfection, HEK293 cells were suspended in Opti-MEM (without phenol red) supplemented with 2% fetal bovine serum (Seradigm) and 100 units/mL penicillin–streptomycin (Gibco) at a final concentration of 220,000 cells/mL and dispensed into white 96-well plates at 90 μL/well. Subsequent transfections and screens were carried using an Agilent Bravo Automated Liquid Handling Platform. First, the 96-well HiBiT DNA arrays were diluted 25-fold in Opti-MEM (without serum or phenol red) to a final concentration of 0.0004 μg/μL and 20 μL of the diluted DNAs were transferred into new 96-well plates. Next, promoterless carrier DNA (1 μg/μL) was diluted 25-fold (0.04 μg/μL) and then dispensed into the diluted arrays at 20 μL/well. Following brief mixing, Viafect transfection reagent (Promega) diluted 16-fold into Opti-MEM was dispensed into the plates at 40 μL/well. After mixing by pipetting, plates were incubated for 10 min on the pipetting station deck. The DNA-transfection reagent complexes were then added to plates containing cells. To facilitate the screen, 10 μL of DNA-transfection reagent complexes were added in duplicates to the top 4 and bottom 4 rows, resulting in two identical 48-well arrays per plate. Plates with transfected cells were incubated for 18–20 h at 37 °C/5% CO2. A screen of each tracer across the entire library using two different concentrations requires duplicate plates of transfected cells. Depending on the number of tracers being screened, transfections can be scaled up using the same ratios. The next day, for each tracer, four 20× screening solutions in tracer dilution buffer (Promega) were prepared: two duplicates at final concentration of 20 μM and two duplicates at a final concentration of 2 μM. […] The four resulting solutions were diluted 4-fold in Opti-MEM without serum or phenol red to generate 5× solutions (5 µM and 0.5 µM tracer +/− 100 μM competing compound). To screen the library, a BioTek MultiFlo FX liquid dispenser was used to dispense 22.5 µL of tracer solution to the top 4 rows and 22.5 µL tracer + competing compound solution to the 4 bottom rows. Plates were briefly mixed on an orbital shaker and incubated for 1.5 h at room temperature. […] Plates were briefly mixed on an orbital shaker and incubated for 15 min to allow complementation.

T1 sequence (P14416 whole entry): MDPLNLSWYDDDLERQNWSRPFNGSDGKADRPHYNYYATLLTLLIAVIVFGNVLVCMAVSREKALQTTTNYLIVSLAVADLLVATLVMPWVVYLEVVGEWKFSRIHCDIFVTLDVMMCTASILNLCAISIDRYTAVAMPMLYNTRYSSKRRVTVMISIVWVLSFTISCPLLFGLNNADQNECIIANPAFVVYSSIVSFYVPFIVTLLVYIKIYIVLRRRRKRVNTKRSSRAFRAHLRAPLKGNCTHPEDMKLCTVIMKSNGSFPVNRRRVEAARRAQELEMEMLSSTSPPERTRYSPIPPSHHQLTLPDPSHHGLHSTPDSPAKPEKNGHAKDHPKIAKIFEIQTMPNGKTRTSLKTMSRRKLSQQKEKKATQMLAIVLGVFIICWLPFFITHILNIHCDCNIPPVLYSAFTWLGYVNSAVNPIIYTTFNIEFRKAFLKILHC

With `COc1ccc2c(n1)c(CCNC(C)=O)cn2CCNC(=O)CCc1ccc2n1[B-](F)(F)[N+]1=C(c3ccc[nH]3)C=CC1=C2` [Azamelatonin-1-NB590] the “NanoBRET Fold Response” value (0.1μM tracer) was 1.19 and the “NanoBRET Fold Response” value (1μM tracer) was 0.52.
For `CC(C)N(CC[C@H](c1ccccc1)c1cc(CCNC(=O)c2ccc(CNC(=O)CCc3ccc4n3[B-](F)(F)[N+]3=C(c5ccc[nH]5)C=CC3=C4)cc2)ccc1O)C(C)C` [Tolterodine-BZ-NB590], the “NanoBRET Fold Response” value (DRD2, tracer 0.1μM) was 1.34 and the “NanoBRET Fold Response” value (DRD2, tracer 1μM) was 1.78.
In the case of `O=C(CCc1ccc2n1[B-](F)(F)[N+]1=C(c3ccc[nH]3)C=CC1=C2)NCCOCCOCCNC(=O)OCCOCCN1CCN(C2=Nc3ccccc3Sc3ccccc32)CC1` [Quetiapine-a-2-NB590], the “NanoBRET Fold Response” value (DRD2, tracer 0.1μM) is reported as 1.86 and the “NanoBRET Fold Response” value (DRD2, tracer 1μM) is reported as 1.76.
`Cc1cc2c(s1)Nc1ccccc1N=C2N1CCN(CCCNC(=O)CCOCCOCCOCCOCCNC(=O)CCc2ccc3n2[B-](F)(F)[N+]2=C(c4ccc[nH]4)C=CC2=C3)CC1` [Olanzapine-a-2-NB590] was tested, and the “NanoBRET Fold Response” value (DRD2, tracer 0.1μM) was 1.98 and the “NanoBRET Fold Response” value (DRD2, tracer 1μM) was 2.25.
With `O=C(CCc1ccc2n1[B-](F)(F)[N+]1=C(c3ccc[nH]3)C=CC1=C2)NCc1ccc(C(=O)NCCOCCOCCNCC(O)COc2cccc3ccccc23)cc1` (centres unmarked) [Propranolol-3-NB590] the “NanoBRET Fold Response” value (DRD2, 0.1μM) was 1.17 and the “NanoBRET Fold Response” value (DRD2, 1μM) was 1.09.
In the case of `N#CN/C(=N\CCNC(=O)c1ccc(N)cc1)NCCCOc1cccc(CN2CCCCC2)c1` [Aminopotentidine (unmodified)], the “NanoBRET Fold Response” value (DRD2, other tracers/Aminopotentidine (unmodified), 0.1μM) is reported as 1.53 and the “NanoBRET Fold Response” value (DRD2, other tracers/Aminopotentidine (unmodified), 1μM) is reported as 1.51.
In the case of `O=C(CCc1ccc2n1[B-](F)(F)[N+]1=C(c3ccc[nH]3)C=CC1=C2)NCc1ccc(C(=O)NCCOCCC(=O)N[C@@H]2CC[C@@]3(O)[C@H]4Cc5ccc(O)c6c5[C@@]3(CCN4CC3CC3)[C@H]2O6)cc1` [Naltrexone-3-NB590], the “NanoBRET Fold Response” value (DRD2, tracer 0.1μM) is reported as 0.98 and the “NanoBRET Fold Response” value (DRD2, tracer 1μM) is reported as 1.36.
With `CC(C)N(CC[C@H](c1ccccc1)c1cc(CCNC(=O)CCOCCOCCOCCOCCNC(=O)CCc2ccc3n2[B-](F)(F)[N+]2=C(c4ccc[nH]4)C=CC2=C3)ccc1O)C(C)C` [Tolterodine-2-NB590] the “NanoBRET Fold Response” value (DRD2, tracer 0.1μM) was 1.07 and the “NanoBRET Fold Response” value (DRD2, tracer 1μM) was 1.09.
`Cc1nc2n(c(=O)c1CCN1CCC(c3noc4cc(F)ccc34)CC1)CCCC2OC(=O)NCCOCCOCCOCCOCCNC(=O)CCc1ccc2n1[B-](F)(F)[N+]1=C(c3ccc[nH]3)C=CC1=C2` (centres unmarked) [Risperidone-2-NB590] was tested, and the “NanoBRET Fold Response” value (DRD2, tracer 0.1μM) was 2.85 and the “NanoBRET Fold Response” value (DRD2, tracer 1μM) was 2.07.
`O=C(CCOCCOCCOCCOCCNC(=O)CCc1ccc2n1[B-](F)(F)[N+]1=C(c3ccc[nH]3)C=CC1=C2)NCCCN1CCN(C2=Nc3cc(Cl)ccc3Nc3ccccc32)CC1` [Clozapine-a-2-NB590] was tested, and the “NanoBRET Fold Response” value (DRD2, 0.1μM tracer) was 2.85 and the “NanoBRET Fold Response” value (DRD2, 1μM tracer) was 2.37.
With `COc1ccc2[nH]c(-c3ccc(CNC(=O)CCOCCOCCOCCOCCNC(=O)CCc4ccc5n4[B-](F)(F)[N+]4=C(c6ccc[nH]6)C=CC4=C5)cc3)c(CCNC(C)=O)c2n1` [AzomelatoninICO9-2-NB590] the “NanoBRET Fold Response” value (0.1μM tracer) was 1.00 and the “NanoBRET Fold Response” value (1μM tracer) was 1.03.
With `COc1ccccc1N1CCN(CCCCN2C(=O)c3ccc(CNC(=O)CCOCCNC(=O)c4ccc(CNC(=O)CCc5ccc6n5[B-](F)(F)[N+]5=C(c7ccc[nH]7)C=CC5=C6)cc4)cc3C2=O)CC1` [NAN-190-3-NB590] the “NanoBRET Fold Response” value (DRD2, tracer 0.1μM) was 1.80 and the “NanoBRET Fold Response” value (DRD2, tracer 1μM) was 1.21.
`N#CN=C(NCCCOc1cccc(CN2CCCCC2)c1)NCCNC(=O)CCOCCOCCOCCOCCNC(=O)CCc1ccc2n1[B-](F)(F)[N+]1=C(c3ccc[nH]3)C=CC1=C2` [Aminopotentidine-2-NB590] was tested, and the “NanoBRET Fold Response” value (DRD2, tracer 0.1μM) was 1.18 and the “NanoBRET Fold Response” value (DRD2, tracer 1μM) was 1.22.
For `CN(C)CCC=C1c2ccccc2CCc2ccc(C(=O)NCCNC(=O)CCOCCOCCOCCOCCNC(=O)CCc3ccc4n3[B-](F)(F)[N+]3=C(c5ccc[nH]5)C=CC3=C4)cc21` [Amitriptyline-b-2-NB590], the “NanoBRET Fold Response” value (tracer at 0.1μM, listed as amitriptyline-b-2-NB590) was 1.54.
With `COc1ccccc1N1CCN(CCCCN2C(=O)c3ccc(CNC(=O)CCOCCOCCOCCOCCNC(=O)CCc4ccc5n4[B-](F)(F)[N+]4=C(c6ccc[nH]6)C=CC4=C5)cc3C2=O)CC1` [NAN-190-2-NB590] the “NanoBRET Fold Response” value (DRD2, tracer 0.1μM) was 2.31 and the “NanoBRET Fold Response” value (DRD2, tracer 1μM) was 1.36.
With `O=C(CCOCCOCCOCCOCCNC(=O)CCc1ccc2n1[B-](F)(F)[N+]1=C(c3ccc[nH]3)C=CC1=C2)NCCCN1CCN(C2=Nc3ccccc3Oc3ccc(Cl)cc32)CC1` [Loxapine-a-2-NB590] the “NanoBRET Fold Response” value (DRD2, tracer 0.1μM) was 1.97 and the “NanoBRET Fold Response” value (DRD2, tracer 1μM) was 1.62.
For `CN(CCC=C1c2ccccc2CCc2ccccc21)C(=O)CCOCCOCCOCCOCCNC(=O)CCc1ccc2n1[B-](F)(F)[N+]1=C(c3ccc[nH]3)C=CC1=C2` [Amitriptyline-e-2-NB590], the “NanoBRET Fold Response” value (tracer at 1μM) was 1.34.
`CCCn1c(=O)c2[nH]c(-c3ccc(OCC(=O)NCCNC(=O)CCOCCNC(=O)c4ccc(CNC(=O)CCc5ccc6n5[B-](F)(F)[N+]5=C(c7ccc[nH]7)C=CC5=C6)cc4)cc3)nc2n(CCC)c1=O` [XAC-3-NB590] was tested, and the “NanoBRET Fold Response” value (DRD2, tracer 0.1μM) was 1.17 and the “NanoBRET Fold Response” value (DRD2, tracer 1μM) was 1.85.
In the case of `CN(C)CCC=C1c2ccccc2CCc2ccc(C(=O)NCCNC(=O)CCOCCOCCOCCOCCNC(=O)CCc3ccc4n3[B-](F)(F)[N+]3=C(c5ccc[nH]5)C=CC3=C4)cc21` [Amitriptyline-a-2-NB590], the “NanoBRET Fold Response” value (tracer at 0.1μM) is reported as 1.50 and the “NanoBRET Fold Response” value (tracer at 1μM) is reported as 1.97.
For `CCOC(=O)c1cc(C#N)c(N2CCC(C(=O)NS(=O)(=O)Cc3ccccc3/C=C/C(=O)NCCNC(=O)CCc3ccc4n3[B-](F)(F)[N+]3=C(c5ccc[nH]5)C=CC3=C4)CC2)nc1C` [AZD1283-1-NB590], the “NanoBRET Fold Response” value (DRD2, 0.1μM) was 1.04 and the “NanoBRET Fold Response” value (DRD2, 1μM) was 1.08.
